The nature of data set [1]: Intraperitoneal glucose and insulin tolerance tests (GTT, ITT) and HOMA-IR in DIO mice. It is filed as in vivo, C57BL/6J mice. The following applies: HFD mice, AvoB 100 mg/kg b.w. twice weekly. How it is done: Intraperitoneal glucose and insulin tolerance tests (GTT and ITT) were performed 8 hours after food withdrawal. For GTT, a glucose dose of 1.5 g/kg was used for mice on both HFD and standard diet. For ITT, an insulin (Humulin, Eli Lilly, USA) dose of 1 U/kg and 0.25 U/kg was used for mice on HFD and standard diet, respectively. Blood glucose levels were determined at 0, 10, 20, 30, 60, and 90 minutes after glucose/insulin administration via tail bleed using the OneTouch Blood Ultra 2 glucose meters (LifeScan Europe, Switzerland).
The homeostasis model assessment was used to calculate the insulin resistance (HOMA-IR) index^60 using the values of fasting plasma glucose (FPG) and fasting plasma insulin (FPI) as follows: […]; HOMA-IR=FPGxFPI/22.5, with FPG expressed as mmol/L and FPI as mIU/L.

Data set [2] concerns INS-1 (832/13) cells. In words: Cell viability (propidium iodide, flow cytometry) in INS-1 (832/13) cells. It is filed as cell-based. The following applies: AvoB 24 h. The protocol:
Quantitative analysis of cell death was evaluated by flow cytometry using propidium iodide staining (Biovision, Mountainview, CA), where specified, according to the manufacturer's protocol and as previously described^28. Viable cells were identified as PI negative (PI−).
In general terms: A flow cytometer gives signals particle by particle.

The subject of data set [3] is INS-1 (832/13) cells. Description: Mitochondrial ROS (MitoSOX) and membrane potential (JC-1) in INS-1 (832/13) cells. As to conditions: 25 μM AvoB, 0.5 mM palmitate, 24 h. It is filed as cell-based, rat. How it is done: For all ROS studies, INS-1 (832/13) cells and C2C12 myotubes were treated with or without palmitate and FAO inhibitors for 24 h in low glucose cell culture media as described for the FAO assay. After treatment, cells were trypsinized and re-suspended in PBS containing 5 μM of the fluorescent dye MitoSOX® (Molecular Probes, Invitrogen) and allowed to incubate for 5-15 minutes in a humidified atmosphere containing 5% CO2 at 37° C. Cells were then washed in PBS, placed in a 96 well plate and fluorescence was measured by flow cytometry. ROS was quantified by normalizing the mean fluorescence values of live gated cells to vehicle control. Mitochondrial membrane potential (MMP) in INS-1 (832/13) and C2C12 myotubes was measured using the cationic fluorescent dye JC-1 (Molecular Probes). […] JC-1 fluoresces green in the cytosol where it exists as a monomer, after entering the mitochondria JC-1 monomers form J aggregates and fluoresce red, thus the red/green fluorescence ratio is used to determine MMP. […] Cells were then washed in PBS, placed in a 96 well plate and fluorescence was measured by flow cytometry. MMP was quantified by normalizing the mean fluorescence values of live gated cells to vehicle control. […] Cells were treated, washed and collected as described and incubated with 0.35 μM NAO and green fluorescence was measured using flow cytometry. […]

Another data set has as its system pAkt-Ser473 and CPT-1A. In words: Immunoblotting of gastrocnemius muscle lysates of DIO mice. It is filed as in vivo, C57BL/6J mice. How it is done: For all cell culture experiments, after drug treatments cells were washed with chilled phosphate-buffered saline (PBS), and lysed in chilled lysis buffer with 1× protease inhibitor cocktail (Sigma). RIPA lysis buffer (Sigma-Aldrich) was used for INS-1 (832/13) cells and muscle lysis buffer for C2C12 myotubes (20 mM HEPES, 10 mM NaCl, 1.5 mM MgCl2, 1 mM DTT, 20% glycerol, and 0.1% Triton-X100). Cells were scraped, mechanically homogenized using a syringe and centrifuged at 14,000×g for 20 min at 4° C. and the supernatants were collected. For preparation of all gastrocnemius muscle lysates, 10 mg frozen tissue (wet weight) was washed in chilled PBS, placed in a dounce homogenizer, lysed in muscle lysis buffer and centrifuged at 14,000×g for 20 min at 4° C. and the supernatant was collected. Protein content for cell and tissue lysates was measured using the BCA protein assay kit (ThermoFisher) according to manufacturer's protocol. Thirty μg protein lysates were prepared in loading buffer and immunoblotting was performed by heating lysates for 5 minutes at 95° C. and subjecting them to gel electrophoresis on 10% SDS-polyacrylamide gels at 150 V for 75 minutes. Using a semi-dry transfer apparatus (Bio-Rad) the gels were then transferred at 25V for 45 minutes to a PVDF membrane and blocked with 5% BSA (Sigma) in tris-buffered saline-tween (TBS-T) for 1 hour. […]
In general terms: A western blot detects proteins with antibodies after separation by electrophoresis.

Turning to avocatin B [AvoB], in data set [1], the HOMA-IR index entry is given as “comparable to lean, STD mice”. Besides, in data set [1] (vs HFD-control, i.p. glucose 1.5 g/kg), the “Glucose tolerance (GTT, AUC)” value was “significantly improved glucose tolerance”. Also, the “Whole body insulin sensitivity (ITT, AUC)” value in data set [1] (vs HFD-control, i.p. insulin) is reported as “greater insulin sensitivity”. In addition, the Cell viability result with INS-1 (832/13) cells [2] is on record as “no effect on cell viability”. Moreover, in the data set with INS-1 (832/13) cells [3], the “Mitochondrial membrane potential (MMP, JC-1)” value is given as “lowers palmitate-induced increases” and the “Mitochondrial superoxide levels (MitoSOX Red)” value is given as “lowers palmitate-induced increases in mitochondrial superoxide levels”. In the data set with pAkt-Ser473 and CPT-1A (AvoB-treated-HFD mice vs HFD-control mice), the “Phosphorylation of AKT Ser473 in gastrocnemius muscle” value is on record as “increased phosphorylation of AKTSer473”. The “CPT-1A protein level in gastrocnemius muscle” value with pAkt-Ser473 and CPT-1A (HFD-control mice compared to AVO-treated-HFD mice) was “higher protein levels of CPT-1A in gastrocnemius muscle compared to AVO-treated-HFD mice”.

The values above are taken from patent publication US12390423B2 (priority 2019, dated 2025).
